Holding throughout (test): inhibition of tumour cell growth, NCI panel, 48 h
Assay [1] relates to TK-10 renal.
The test system of assay [2] is EKVX NSCLC.
The test system of assay [3] is OVCAR-4 ovarian.
Assay [4] concerns NCI-H23 lung.
Assay [5] has as its system UO-31 renal.
The test system of assay [6] is K-562 leukemia.
The subject of assay [7] is MALME-3M melanoma.
For assay [8], the system named is A498 renal.
Assay [9] concerns RXF 393 renal.
In assay [10] the test system is HL-60(TB) leukemia.
The test system of assay [11] is PC-3 prostate.
Assay [12] relates to CAKI-1 renal.
For assay [13], the system named is OVCAR-3 ovarian.
Assay [14] relates to OVCAR-8 ovarian.
Assay [15] relates to HOP-92 NSCLC.

SMILES strings stand for the structures.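 Five compound concentrations were applied to cells in 96-well plates for 48 hours; endpoints were derived by simple linear interpolation of the resulting dose-response curve. At the TGI there is no net growth.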

For the compound `c1ccc(CSc2nc(N3CCOCC3)c3cn[nH]c3n2)cc1`, the TGI in assay [1] is 51.6 µM; in assay [2] it was 48 µM; in assay [3], above 100 µM; in assay [4], above 100 µM; in assay [5], 38.4 µM; in [6] it was above 100 µM. Further, the TGI was 31.8 µM in assay [7]; 26.1 µM in [8]; 32.9 µM in assay [9]; above 100 µM in [10]; 38.2 µM in [11]; 57.5 µM in assay [12]. Also, the figures for the TGI in assay [13] and in assay [14] were above 100 µM and 89.1 µM, respectively.

`COC(=O)CCC12CCC(O1)c1ccccc12` (stereo not drawn): the TGI in assay [1], in [2], in assay [3], in [4], in assay [5] and in assay [6] was above 100 µM in each case. Further, the TGI in [15], in [8], in assay [9], in assay [10], in [11] and in assay [12] was above 100 µM throughout. The compound also returned a TGI in [14] above 100 µM.

Turning to `N/C(=N/n1c(=S)[nH]c2ccccc2c1=O)Nn1c(=S)[nH]c2ccccc2c1=O`, the TGI in assay [1] was above 100 µM; in assay [2] it was above 100 µM; in assay [3], above 100 µM; in assay [4], 62.4 µM; in assay [5], 27.3 µM; in [6], 83.6 µM. The TGI in [7] is 45.6 µM; in assay [8], above 100 µM; in assay [9], above 100 µM; in assay [11], above 100 µM; in assay [12] it was 26.3 µM; in assay [13], above 100 µM. For the same compound, in assay [14], the TGI is above 100 µM.

As to `O=c1oc2ccccc2n1CCN1CCCCC1`, the TGI in assay [1], in assay [2], in assay [4], in [6], in assay [7] and in assay [8] was above 100 µM throughout. Moreover, the TGI in assay [9], in [10], in [11], in [12], in assay [13] and in assay [14] was above 100 µM throughout.

On to `COc1ccc2c3c1OC1c4[nH]c5ccccc5c4CC4(O)C(C2)N(C)CCC314` (stereo not drawn), for which the TGI is 50.2 µM in [1]; above 100 µM in [2]; above 100 µM in assay [3]; above 100 µM in assay [4]; 28.1 µM in assay [5]; 37.2 µM in assay [6]. Further, the TGI in assay [15] is 48.7 µM; in [8] it was 31.6 µM; in assay [9], 50.8 µM; in assay [11], above 100 µM; in assay [12], above 100 µM; in assay [13] it was above 100 µM. Also, in assay [14], the TGI was above 100 µM.

On to `CNC(=O)c1[nH]cnc1/N=N/N(C)N`, for which the TGI in assay [1], in [2], in [3], in assay [4], in assay [5] and in [6] was above 100 µM throughout. For the same compound, the TGI in [7], in assay [8], in assay [9], in [11], in [12] and in assay [13] was above 100 µM each time. The compound further gave a TGI in [14] above 100 µM.

For the compound `CC1C[C@]2(C)C(=O)N(c3ccccc3)C(=N)[C@@H]2N(C)c2ccccc21` (stereo partly drawn), the TGI in [1], in [2], in [3], in assay [4], in assay [5] and in assay [6] was above 100 µM each time. The TGI in assay [7], in assay [8], in assay [9], in assay [10], in assay [11] and in [12] was above 100 µM in each case. Besides, the TGI in assay [13] and in assay [14] was above 100 µM throughout.

`COc1cc2c(cc1OC)CC(N=[N+]=[N-])c1cc(OC)c(OC)cc1/C=C\2` (stereo not drawn): the TGI in [1], in [2], in assay [3], in assay [5], in [6] and in [15] was above 100 µM each time. Besides, the TGI in [8] is above 100 µM; in assay [10] it was above 100 µM; in [11] it was above 100 µM; in [12], 95.3 µM; in assay [13], above 100 µM; in assay [14], 55.8 µM.

Regarding `CCC1C(c2cc(OC)c(OC)c(OC)c2)c2cc3c(cc2OC1N1CCOCC1)OCO3` (stereo not drawn), the TGI came out at 54.1 µM in [2]; 14.6 µM in assay [3]; 17.5 µM in assay [5]; 52.6 µM in assay [7]; 41 µM in assay [15]; 14.1 µM in assay [11]. Moreover, the TGI in assay [13] was 18.7 µM; in assay [14], 17.6 µM.

Take `CC[C@@H](/C=C\CCC1(C[C@H](O)CCC=C(C)C)OCCO1)O[Si](C(C)C)(C(C)C)C(C)C`: the TGI in [1] was 39.3 µM; in assay [2], 60.2 µM; in [3], above 100 µM; in assay [4] it was 61.8 µM; in assay [5], 34.3 µM; in assay [6] it was 60 µM. For the same compound, the TGI in assay [15] is 66.8 µM; in assay [8], 81.3 µM; in [9], 33.8 µM; in assay [10], 38.4 µM; in assay [11], above 100 µM; in [12], 87.1 µM. The figures for the TGI in [13] and in assay [14] were 37.1 µM and 38 µM, respectively.

On to `Cc1nnc2n1-c1ccccc1C(=S)N1CSCC21` (stereo not drawn), for which the TGI in assay [1], in assay [2], in [3], in [5], in assay [6] and in assay [7] was above 100 µM throughout. For the same compound, the TGI in [8], in assay [9], in assay [11], in assay [12], in assay [13] and in [14] was above 100 µM throughout.

For `Cn1c(-c2cccs2)cc(-c2cccs2)c1-c1ccsc1`, the TGI in assay [1], in assay [2], in [3], in assay [4], in assay [5] and in [6] was above 100 µM each time. For the same compound, the TGI in assay [15], in assay [8], in [9], in assay [10], in [11] and in assay [12] was above 100 µM each time. Moreover, the TGI in [13] is 75.2 µM; in assay [14], above 100 µM.

Take `CC[C@H]1OC([C@H](O)C/C=C\C#C[Si](C)(C)C)C/C=C\C[C@H]1O[Si](C)(C)C(C)(C)C` (stereo partly drawn): the TGI in [2], in [3], in assay [4], in assay [5], in [6] and in assay [7] was above 100 µM each time. Further, the TGI in assay [8], in assay [9], in [11], in assay [12], in [13] and in assay [14] was above 100 µM throughout.

With `Cc1cccc(NC(=S)Nc2ccccc2Cl)n1`, the TGI in assay [1] was above 100 µM; in assay [2], 67.8 µM; in assay [3] it was 57.8 µM; in [5] it was above 100 µM; in assay [6], above 100 µM; in assay [7] it was 88.3 µM. The TGI is 64.6 µM in assay [8]; 60 µM in [9]; above 100 µM in assay [10]; above 100 µM in assay [11]; 96.4 µM in assay [12]; above 100 µM in assay [13]. Besides, the TGI in assay [14] was 73.7 µM.

Take `O=c1[nH]nc(Cc2ccccc2)n1Nc1ccccc1`: the TGI in assay [1], in assay [2], in [3], in [4], in [5] and in assay [6] was above 100 µM in each case. The TGI in assay [7], in [8], in [10], in [11], in [12] and in assay [13] was above 100 µM each time. In addition, the TGI in [14] was above 100 µM.

`CC1(C)Oc2ccc3c(=O)cc(-c4ccc(F)cc4)oc3c2C1C(=O)O` (stereo not drawn): the TGI in assay [1], in assay [2], in assay [4], in assay [6], in [7] and in assay [8] was above 100 µM throughout. The TGI in [9] is above 100 µM; in assay [11] it was above 100 µM; in assay [12], 54.6 µM; in assay [13], above 100 µM; in [14], above 100 µM.

Turning to `C[C@H](O)C1CC(Cn2nnc3c(N)ncnc32)C1(C)C` (stereo partly drawn), the TGI in [1] is above 100 µM; in [2], above 100 µM; in [3], above 100 µM; in assay [5], above 100 µM; in [6] it was 0.0411 µM; in assay [15], above 100 µM. Further, the TGI in assay [8], in assay [9], in [11], in assay [12] and in [13] was above 100 µM each time.

Take `COc1cccc(-c2cc(=O)c3c(C)ccnc3[nH]2)c1`: the TGI is above 100 µM in assay [1]; above 100 µM in assay [2]; above 100 µM in assay [3]; above 100 µM in assay [4]; above 100 µM in assay [5]; 0.397 µM in [6]. Besides, the TGI was above 100 µM in assay [7]; above 77.1 µM in assay [8]; above 100 µM in [9]; 0.0532 µM in [10]; above 100 µM in [11]; above 100 µM in [14].

`COCc1cc2c(cc1/C=C/[N+](=O)[O-])OCO2`: the TGI was 30.8 µM in assay [1]; 36.5 µM in assay [2]; 44 µM in [4]; 30.9 µM in assay [5]; above 100 µM in assay [6]; 36.8 µM in [15]. The TGI is 30.8 µM in assay [8]; 32.3 µM in assay [9]; 85.6 µM in assay [10]; 24.6 µM in [11]; 34.2 µM in [12]; 33.7 µM in [13]. In addition, in [14], the TGI came out at 55.2 µM.

Regarding `COC(=O)/C=c1/c2ccccc2n2nc3ccccc3c12`, the TGI in assay [1], in [2], in assay [3], in assay [4], in assay [5] and in assay [6] was above 100 µM in each case. In addition, the TGI in [7] was above 100 µM; in assay [8] it was 93.3 µM; in assay [9], above 100 µM; in assay [10], above 100 µM; in assay [11], above 100 µM; in [12] it was above 100 µM. In addition, the TGI in [13] and in [14] was above 100 µM each time.

`CNC1=CC(=O)C2=C(C1=O)[C@H]1CC[C@]3(C)C(=O)CC[C@H]3[C@@H]1CC2`: the TGI in [1] was above 100 µM; in assay [2], 29.9 µM; in assay [3], 37.4 µM; in assay [4], 19.9 µM; in [5] it was 49.2 µM; in assay [6], above 57.5 µM. Moreover, the TGI in assay [15] amounted to 25.7 µM; in assay [8], 43.4 µM; in assay [9], 41.1 µM; in assay [11], 38.9 µM; in [12], 33.6 µM; in [13], 9.3 µM. In assay [14], this compound displayed a TGI of 29.5 µM.

Consider `CC12Cc3cc4c(cc3C1(c1ccc([N+](=O)[O-])cc1)OCCO2)OCO4` (stereo not drawn), for which the TGI in [1], in [2], in assay [3], in assay [4], in assay [5] and in [6] was above 100 µM in each case. The TGI was above 100 µM in assay [7]; above 100 µM in assay [8]; 51.6 µM in assay [9]; above 100 µM in assay [10]; above 100 µM in assay [11]; above 100 µM in assay [12]. For the same compound, the TGI in [13] is above 100 µM; in assay [14] it was 64 µM.

The values are drawn from PubChem BioAssay (NCI).
